Common to all, as to assay type: cell-based, Mus musculus
In one assay the test system is primary white adipocytes. The assay is described as follows: Thermogenic gene expression. The settings on record: for Ucp1 expression: primary adipocytes treated with the indicated proteins 1 μg/ml for 24 hr, n = 3 (Fig. 2e).
The subject of another assay is primary adipocytes. The assay is described as follows: Cellular oxygen consumption rate. As to conditions: primary white adipocytes, NE 100 nM, PTHrP or PTH 100 ng/ml, 24 hr, n = 4.
A further assay concerns UCP1 protein. Kind of assay: UCP1 protein levels by western blotting in primary white and brown adipocytes. The settings on record: NE 100 nM, PTHrP or PTH 100 ng/ml each, 24 hr. (Immunoblotting shows a protein as a band on a membrane.)
A further assay relates to primary brown adipocytes. The assay is described as follows: Thermogenic gene expression. As to conditions: peptides 100 ng/ml for 2 hr, RT-qPCR, n = 3 (Extended Data Fig. 3d). (In general: Real-time PCR tracks product formation cycle by cycle.)

As for `C=CC(=O)Nc1ccc2ncnc(Nc3ccc(OCc4cccc(F)c4)c(Cl)c3)c2c1` [AST-1306], in the assay on primary white adipocytes (AST-1306 1 μM and LLC cell-conditioned medium for 24 hr, primary adipocytes, n = 3 (Fig. 3a)), the “browning activity present in LLC cell-conditioned medium” value is “largely unaffected”. Also, in the assay on primary white adipocytes (AST-1306 1 μM with BTC, EREG or HBEGF 100 ng/ml for 24 hr, primary adipocytes, n = 3 (Extended Data Fig. 3c)), the “Ucp1 mRNA induction by BTC, EREG or HBEGF” value is given as “completely blocked Ucp1 mRNA induction”.

Consider `NC[C@H](O)c1ccc(O)c(O)c1` [NE, norepinephrine], for which the “O2 consumption, including basal, uncoupled and maximal respiration” value in the assay on primary adipocytes was “significantly raised O2 consumption”. In the assay on UCP1 protein, the UCP1 protein levels result is given as “increased UCP1 protein comparably”.

As to “PTH: Synthetic parathyroid hormone 1-34 peptide, purchased from Bachem (SVSEIQLMHNLGKHLNSMERVEWLRKKLQDVHNF; Parathyroid hormone; UniProt P01270 32-65, looked up, fragment)”, the thermogenic gene expression result in the assay with primary brown adipocytes is given as “stimulated thermogenic gene expression”; in the assay on primary white adipocytes (primary white adipocytes, peptides 100 ng/ml for 2 hr, RT-qPCR, n = 3 (Fig. 3b)), “stimulated thermogenic gene expression”. Moreover, the “O2 consumption, including basal, uncoupled and maximal respiration” value in the assay with primary adipocytes is reported as “significantly raised O2 consumption”. The UCP1 protein levels entry with UCP1 protein is given as “increased UCP1 protein comparably”.

Consider epiregulin [EREG], for which the Ucp1 expression entry in the assay with primary white adipocytes (RT-qPCR) is “induced Ucp1 expression”.

B1: betacellulin (protein, UniProt P35070 32-111, looked up)
Betacellulin: DGNSTRSPETNGLLCGDPEENCAATTTQSKRKGHFSRCPKQYKHYCIKGRCRFVVAEQTPSCVCDEGYIGARCERVDLFY
With B1, the Ucp1 expression entry in the assay with primary white adipocytes (RT-qPCR) was “induced Ucp1 expression”.

B2: heparin binding-EGF (protein, UniProt Q99075 63-148, looked up)
Heparin-binding EGF-like …: DLQEADLDLLRVTLSSKPQALATPNKEEHGKRKKKGKGLGKKRDPCLRKYKDFCIHGECKYVKELRAPSCICHPGYHGERCHGLSL
On to B2, for which, in the assay on primary white adipocytes (RT-qPCR), the Ucp1 expression entry was “induced Ucp1 expression”.

Values taken from PMC4224962 (Nature, 2014).
